Data reported in patent US20050004024A1, “Methods of treating Pin1 associated disorders by covalent modification of active site residues” (PINTEX PHARMACEUTICALS, INC., priority 2003, published 2005).

Target: Pin1 (Homo sapiens, UniProt Q13526)
Experiment: Time dependent inactivation of Pin1 (pre-incubation, then protease coupled Pin1 assay)
Assay type: biochemical
Conditions: 7.4 uM Pin1 incubated with 200 uM compound, 1% DMF, 35 mM hepes pH 7.8; aliquots diluted to 1 nM Pin1; FIG. 2
Experimental: Pin1 was incubated with Fred-A to determine the effect on peptidyl prolyl isomerase activity.
(§1) A solution containing 7.4 uM Pin1, 100 uM juglone 1% DMF, in 35 mM hepes pH 7.8 was incubated. At various time points, aliquots were removed and diluted into assay buffer containing 1 nM Pin1, 13.5 nM juglone, 0.1 mg/ml BSA, 0.2 mM DTT, and 35 mM Hepes pH 7.8. Pin1 activity was measured by using a protease coupled Pin1 assay.
Aliquots of the incubation mixtures were diluted 7,200 fold into assay buffer (0.1 mg/mL BSA, 0.2 mM DTT and 35 mM Hepes pH 7.8) to a final Pin1 concentration of 1 nM. 20 uL of a 0.4 mg/mL trypsin solution in 35 mM Hepes pH 7.8 was added to 1.2 mL Pin1 solution. The enzymatic reaction was initiated by the addition of 3 uL the substrate solution (15/mg/mL of Ac-Ala-Ala-(PO3)Ser-Pro-Arg-pNA dissolved in a solution of 0.5 M LiCl in trifluroethanol). The reaction progress was monitored at 390 nm for 8 minutes at 4° C.
as §1, with “200” for “100”, “27” for “13.5”, “as described above for juglone.” for “by using a protease coupled Pin1 assay.”

Sequence of Pin1 (Q13526 whole entry): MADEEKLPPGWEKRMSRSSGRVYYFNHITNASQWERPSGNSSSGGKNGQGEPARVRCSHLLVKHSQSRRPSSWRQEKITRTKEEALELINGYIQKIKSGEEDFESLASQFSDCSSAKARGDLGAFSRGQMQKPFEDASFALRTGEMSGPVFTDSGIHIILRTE

Fredericamycin A [Fred-A]
effect on peptidyl prolyl isomerase activity / covalent modification of Pin1: modified in a manner consistent with covalent modification of the active site
